Test results from publication PMC8179178 (Chemical Science, 2021).
Converted amounts (≈) assume the structure as drawn. Where a name gives a salt, the structure may show the parent alone.

Legend:
Solubility in PBS = type: physicochemical; conditions: aqueous buffer
MC38 cells = assay: MTT cell proliferation assay; type: cell-based, murine; conditions: Mus musculus, MC-38, read-out: Cytotoxicity (IC50)
rats = conditions: given over 22 days; cited from earlier work

| SMILES | solubility (Solubility in PBS) [µg/mL] | IC50 (MC38 cells) [nM] | Multi-dose MTD of conventional Dox (rats) [mg/kg] |
| --- | --- | --- | --- |
| COc1cccc2c1C(=O)c1c(O)c3c(c(O)c1C2=O)C[C@@](O)(C(=O)CO)C[C@@H]3O[C@H]1C[C@H](N)[C@H](O)[C@H](C)O1 [Dox HCl, doxorubicin] | 3800 | 23 | 10 |
| COc1cc([C@@H]2c3cc4c(cc3[C@@H](O[C@@H]3O[C@@H]5CO[C@@H](C)O[C@H]5[C@H](O)[C@H]3O)[C@H]3COC(=O)[C@H]23)OCO4)cc(OC)c1O [ETP, etoposide] | 2800 (≈ 4.76 mM) | 160 |  |
| Nc1ccn([C@@H]2O[C@H](CO)[C@@H](O)C2(F)F)c(=O)n1 [GCB HCl, gemcitabine] |  | 3 |  |
| CC(=O)O[C@H]1C(=O)[C@@]2(C)[C@H]([C@H](OC(=O)c3ccccc3)[C@]3(O)C[C@H](OC(=O)[C@H](O)[C@@H](NC(=O)c4ccccc4)c4ccccc4)C(C)=C1C3(C)C)[C@]1(OC(C)=O)CO[C@@H]1C[C@@H]2O [PTX, paclitaxel] |  | 32 |  |
